{"source": "patent US20260274833A1", "about": "(NiKang Therapeutics, Inc., priority 2022, published 2026)", "biological_target": "T1, CDK2 (Homo sapiens, UniProt P24941)", "T1 construct": "endogenous in cells; host or cells: OVCAR3 cells", "experiment": "Phospho-RB measurement in OVCAR3 cells (HTRF phospho-RB cellular kit)", "type": "cell-based", "conditions": "24 h compound treatment", "how_it_was_run": "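IC50 came from a four-parameter logistic fit of the DMSO-normalized TR-FRET ratio (665/620 nm). That ratio reflects RB phosphorylation at S807/811, read with an HTRF antibody pair 4 h after adding lysate at room temperature.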", "key": {"[1]": {"conditions": "inhibition of RB phosphorylation at S807/811 (HTRF, TR-FRET ratio 665/620), 0.3 to 10,000 nM"}}, "data": [{"smiles": "CN1CCN(S(=O)(=O)Nc2cccc(-c3nc(C(C)(C)C)sc3-c3ccnc(NC4CCN(S(C)(=O)=O)CC4)n3)c2F)CC1=O", "note": "[Example 89, N-(3-(2-(tert-butyl)-5-(2-((1-(methylsulfonyl)-piperidin-4-yl)amino)-pyrimidin-4-yl)thiazol-4-yl)-2-fluoro-phenyl)-4-methyl-3-oxopiperazine-1-sulfonamide]", "values": [{"measurement": "IC50", "setting": "[1]", "value": 4.81, "unit": "µM"}]}, {"smiles": "CC(C)(C)c1nc(-c2cccc(NS(=O)(=O)N3CCn4cnnc4C3)c2F)c(-c2ccnc(NC3CCN(S(C)(=O)=O)CC3)n2)s1", "note": "[Example 90, N-(3-(2-(tert-butyl)-5-(2-((1-(methylsulfonyl)-piperidin-4-yl)amino)-pyrimidin-4-yl)thiazol-4-yl)~2~fluoro-phenyl)-5,6-dihydro-[1,2,4] triazolo-[4,3-a]pyrazine-7(8H)-sulfonamide]", "values": [{"measurement": "IC50", "setting": "inhibition of RB phosphorylation at S807/811 (HTRF)", "value": "> 10", "unit": "µM"}]}, {"smiles": "CC(C)(C)c1nc(-c2cccc(NS(=O)(=O)N3CCOc4ccccc4C3)c2F)c(-c2ccnc(NC3CCN(S(C)(=O)=O)CC3)n2)s1", "note": "[Example 91, N-(3-(2-(tert-butyl)-5-(2-((1-(methylsulfonyl)-piperidin-4-yl)amino)-pyrimidin-4-yl)thiazol-4-yl)-2-fluorophenyl)-2,3-dihydrobenzo [f][1,4]-oxazepine-4 (5H)-sulfonamide]", "values": [{"measurement": "IC50", "setting": "[1]", "value": 0.117, "unit": "µM"}]}, {"smiles": "CC(C)(C)c1nc(-c2cccc(NS(=O)(=O)N3CCc4cc(C#N)ccc43)c2F)c(-c2ccnc(NC3CCN(S(C)(=O)=O)CC3)n2)s1", "note": "[Example 92, N-(3-(2-(tert-butyl)-5-(2-((1-(methylsulfonyl)piperidin-4-yl)amino)-pyrimidin-4-yl)thiazol-4-yl)-2-fluorophenyl)-5-cyanoindoline-1-sulfonamide]", "values": [{"measurement": "IC50", "setting": "[1]", "value": 0.305, "unit": "µM"}]}, {"smiles": "CC(C)(C)c1nc(-c2cccc(NS(=O)(=O)N3CCN(S(C)(=O)=O)CC3)c2F)c(-c2ccnc(NC3CCN(S(C)(=O)=O)CC3)n2)s1", "note": "[Example 93, N-(3-(2-(tert-butyl)-5-(2-((1-(methylsulfonyl)piperidin-4-yl)amino)-pyrimidin-4-yl)thiazol-4-yl)-2-fluorophenyl)-4-(methylsulfonyl)-piperazine-1-sulfonamide]", "values": [{"measurement": "IC50", "setting": "[1]", "value": 3.03, "unit": "µM"}]}, {"smiles": "CC(C)(C)c1nc(-c2cccc(NS(=O)(=O)N3CCn4c(nnc4C(F)(F)F)C3)c2F)c(-c2ccnc(NC3CCN(S(C)(=O)=O)CC3)n2)s1", "note": "[Example 94, N-(3-(2-(tert-butyl)-5-(2-((1-(methylsulfonyl)-piperidin-4-yl)amino)-pyrimidin-4-yl)thiazol-4-yl)-2-fluoro-phenyl)-3-(trifluoromethyl)-5,6-dihydro-[1,2,4]triazolo [4,3-a]pyrazine-7(8H)-sulfonamide]", "values": [{"measurement": "IC50", "setting": "[1]", "value": 5.94, "unit": "µM"}]}, {"smiles": "CC(C)(C)c1nc(-c2cccc(NS(=O)(=O)N3Cc4cccnc4C3)c2F)c(-c2ccnc(NC3CCN(S(C)(=O)=O)CC3)n2)s1", "note": "[Example 95, N-(3-(2-(tert-butyl)-5-(2-((1-(methylsulfonyl)piperidin-4-yl)amino)-pyrimidin-4-yl)thiazol-4-yl)-2-fluoro-phenyl)-5,7-dihydro-6H-pyrrolo-[3,4-b]pyridine-6-sulfonamide]", "values": [{"measurement": "IC50", "setting": "[1]", "value": 0.61, "unit": "µM"}]}, {"smiles": "CN(C)S(=O)(=O)Nc1cccc(-c2nc(C(C)(C)C)sc2-c2ccnc(NC3CCN(S(=O)(=O)N4CCNCC4)CC3)n2)c1F", "note": "[Example 96, N-(3-(2-(tert-butyl)-5-(2-((1-(piperazin-1-ylsulfonyl)piperidin-4-yl)amino)-pyrimidin-4-yl)thiazol-4-yl)-2-fluorophenyl) dimethylamine-sulfonamide]", "values": [{"measurement": "IC50", "setting": "[1]", "value": 0.454, "unit": "µM"}]}, {"smiles": "CC(C)(C)c1nc(-c2cccc(NS(=O)(=O)N3Cc4ccc(C#N)cc4C3)c2F)c(-c2ccnc(NC3CCN(S(C)(=O)=O)CC3)n2)s1", "note": "[Example 97, N-(3-(2-(tert-butyl)-5-(2-((1-(methylsulfonyl)piperidin-4-yl)amino)-pyrimidin-4-yl)thiazol-4-yl)-2-fluorophenyl)-5-cyanoisoindoline-2-sulfonamide]", "values": [{"measurement": "IC50", "setting": "[1]", "value": 0.285, "unit": "µM"}]}, {"smiles": "CC(C)(C)c1nc(-c2cccc(NS(=O)(=O)N3CCOc4ccccc43)c2F)c(-c2ccnc(NC3CCN(S(C)(=O)=O)CC3)n2)s1", "note": "[Example 98, N-(3-(2-(tert-butyl)-5-(2-((1-(methylsulfonyl)piperidin-4-yl)amino)-pyrimidin-4-yl)thiazol-4-yl)-2-fluoro-phenyl)-2,3-dihydro-4H-benzo[b][1,4]-oxazine-4-sulfonamide]", "values": [{"measurement": "IC50", "setting": "[1]", "value": 0.511, "unit": "µM"}]}, {"smiles": "CN1CCN(S(=O)(=O)Nc2cccc(-c3nc(C(C)(C)C)sc3-c3ccnc(NC4CCN(S(C)(=O)=O)CC4)n3)c2F)c2ccccc21", "note": "[Example 99, N-(3-(2-(tert-butyl)-5-(2-((1-(methylsulfonyl)piperidin-4-yl)amino)-pyrimidin-4-yl)thiazol-4-yl)-2-fluoro-phenyl)-4-methyl-3,4-dihydro-quinoxaline-1(2H)-sulfonamide]", "values": [{"measurement": "IC50", "setting": "[1]", "value": 0.202, "unit": "µM"}]}, {"smiles": "CN(c1ccccc1)S(=O)(=O)Nc1cccc(-c2nc(C(C)(C)C)sc2-c2ccnc(NC3CCN(S(C)(=O)=O)CC3)n2)c1F", "note": "[Example 100, N-(3-(2-(tert-butyl)-5-(2-((1-(methylsulfonyl)piperidin-4-yl)amino)-pyrimidin-4-yl)thiazol-4-yl)-2-fluorophenyl)(N-methyl-N-phenyl)-aminosulfonamide]", "values": [{"measurement": "IC50", "setting": "[1]", "value": 1.24, "unit": "µM"}]}, {"smiles": "CC(C)(C)OC(=O)N1CCN(S(=O)(=O)Nc2cccc(-c3nc(C(C)(C)C)sc3-c3ccnc(NC4CCN(S(C)(=O)=O)CC4)n3)c2F)c2ccccc21", "note": "[Example 101, tert-butyl 4-(N-(3-(2-(tert-butyl)-5-(2-((1-(methylsulfonyl)piperidin-4-yl)amino)-pyrimidin-4-yl)thiazol-4-yl)-2-fluorophenyl)-sulfamoyl)-3,4-dihydroquinoxaline-1(2H)-carboxylate]", "values": [{"measurement": "IC50", "setting": "[1]", "value": 1.83, "unit": "µM"}]}, {"smiles": "CC(C)(C)c1nc(-c2cccc(NS(=O)(=O)N3CCNc4ccccc4C3)c2F)c(-c2ccnc(NC3CCN(S(C)(=O)=O)CC3)n2)s1", "note": "[Example 102, N-(3-(2-(tert-butyl)-5-(2-((1-(methylsulfonyl)piperidin-4-yl)amino)-pyrimidin-4-yl)thiazol-4-yl)-2-fluorophenyl)-1,2,3,5-tetrahydro-4H-benzo[e] [1,4]diazepine-4-sulfonamide]", "values": [{"measurement": "IC50", "setting": "[1]", "value": 0.281, "unit": "µM"}]}, {"smiles": "CC(C)(C)c1nc(-c2cccc(NS(=O)(=O)N3Cc4ccncc4C3)c2F)c(-c2ccnc(NC3CCN(S(C)(=O)=O)CC3)n2)s1", "note": "[Example 103, N-(3-(2-(tert-butyl)-5-(2-((1-(methylsulfonyl)piperidin-4-yl)amino)-pyrimidin-4-yl)thiazol-4-yl)-2 fluorophenyl)-1,3-dihydro-2H-pyrrolo[3,4-c] pyridine-2-sulfonamide]", "values": [{"measurement": "IC50", "setting": "[1]", "value": 0.142, "unit": "µM"}]}, {"smiles": "CC(C)(C)c1nc(-c2cccc(NS(=O)(=O)N3CCc4c(C#N)cccc43)c2F)c(-c2ccnc(NC3CCN(S(C)(=O)=O)CC3)n2)s1", "note": "[Example 104, N-(3-(2-(tert-butyl)-5-(2-((1-(methylsulfonyl)piperidin-4-yl)amino)-pyrimidin-4-yl)thiazol-4-yl)-2-fluorophenyl)-4-cyanoindoline-1-sulfonamide]", "values": [{"measurement": "IC50", "setting": "[1]", "value": 0.082, "unit": "µM"}]}, {"smiles": "CN(C)CCN(C)S(=O)(=O)N1CCC(Nc2nccc(-c3sc(C(C)(C)C)nc3-c3cccc(NS(=O)(=O)N4CCOc5ccccc5C4)c3F)n2)CC1", "note": "[Example 105, N-(3-(2-(tert-butyl)-5-(2-((1-(N-(2-(dimethyl-amino)ethyl)-N-methyl-sulfamoyl)piperidin-4-yl)amino)-pyrimidin-4-yl)thiazol-4-yl)-2-fluoro-phenyl)-2,3-dihydrobenzo [f][1,4]-oxazepine-4 (5H)-sulfonamide]", "values": [{"measurement": "IC50", "setting": "[1]", "value": 0.215, "unit": "µM"}]}, {"smiles": "CC(C)(C)c1nc(-c2cccc(NS(=O)(=O)N3CCNc4ccccc43)c2F)c(-c2ccnc(NC3CCN(S(C)(=O)=O)CC3)n2)s1", "note": "[Example 106, N-(3-(2-(tert-butyl)-5-(2-((1-(methylsulfonyl)piperidin-4-yl)amino)-pyrimidin-4-yl)thiazol-4-yl)-2-fluorophenyl)-3,4-dihydroquinoxaline-1(2H)-sulfonamide]", "values": [{"measurement": "IC50", "setting": "[1]", "value": 0.263, "unit": "µM"}]}, {"smiles": "CN(C1CCC1)S(=O)(=O)Nc1cccc(-c2nc(C(C)(C)C)sc2-c2ccnc(NC3CCN(S(=O)(=O)N4CCNCC4)CC3)n2)c1F", "note": "[Example 107, N-(3-(2-(tert-butyl)-5-(2-((1-(piperazin-1-yl-sulfonyl)piperidin-4-yl)amino)-pyrimidin-4-yl)thiazol-4-yl)-2-fluoro-phenyl)(N-methyl-N-cyclo-butylamine)-sulfonamide]", "values": [{"measurement": "IC50", "setting": "[1]", "value": 0.919, "unit": "µM"}]}, {"smiles": "CN(C1CC1)S(=O)(=O)Nc1cccc(-c2nc(C(C)(C)C)sc2-c2ccnc(NC3CCN(S(=O)(=O)N4CCNCC4)CC3)n2)c1F", "note": "[Example 108, N-(3-(2-(tert-butyl)-5-(2-((1-(piperazin-1-yl-sulfonyl)piperidin-4-yl)amino)-pyrimidin-4-yl)thiazol-4-yl)-2-fluoro-phenyl)(N-methyl-N-cyclopro-pylamine)-sulfonamide]", "values": [{"measurement": "IC50", "setting": "[1]", "value": 2.07, "unit": "µM"}]}, {"smiles": "CC1c2ccccc2CN1S(=O)(=O)Nc1cccc(-c2nc(C(C)(C)C)sc2-c2ccnc(NC3CCN(S(C)(=O)=O)CC3)n2)c1F", "note": "(centres unmarked) [Example 109, N-(3-(2-(tert-butyl)-5-(2-((1-(methylsulfonyl)-piperidin-4-yl)amino)-pyrimidin-4-yl)thiazol-4-yl)-2-fluoro-phenyl)-1-methylisoindoline-2-sulfonamide]", "values": [{"measurement": "IC50", "setting": "[1]", "value": 0.21, "unit": "µM"}]}, {"smiles": "CC(C)(C)c1nc(-c2cccc(NS(=O)(=O)N3CCOc4ncccc4C3)c2F)c(-c2ccnc(NC3CCN(S(C)(=O)=O)CC3)n2)s1", "note": "[Example 110, N-(3-(2-(tert-butyl)-5-(2-((1-(methylsulfonyl)-piperidin-4-yl)amino)-pyrimidin-4-yl)thiazol-4-yl)-2-fluoro-phenyl)-2,3-dihydropyrido [3,2-f][1,4]-oxazepine-4 (5H)-sulfonamide]", "values": [{"measurement": "IC50", "setting": "[1]", "value": 1.03, "unit": "µM"}]}, {"smiles": "CN1CCN(S(=O)(=O)N2CCC(Nc3nccc(-c4sc(C(C)(C)C)nc4-c4cccc(NS(=O)(=O)N(C)C5CCC5)c4F)n3)CC2)CC1", "note": "[Example 111, N-(3-(2-(tert-butyl)-5-(2-((1-((4-methylpiperazin-1-yl)sulfonyl)piperidin-4-yl)amino)pyrimidin-4-yl)thiazol-4-yl)-2-fluorophenyl)-(N-methyl-N-cyclobutylamine)-sulfonamide]", "values": [{"measurement": "IC50", "setting": "[1]", "value": 0.908, "unit": "µM"}]}]}
